≈ marks a conversion by molar mass, not a printed value. Read-outs that look alike come from different tables or passages of the source.
Legend:
hERG [1] = target: T1, hERG (Homo sapiens, UniProt Q12809); details: BMCL, 21, 7489-7495, 2011; cited from earlier work
[2] = led to discontinuation from clinical development; North American Journal of Medical Science, 4, 537-47, 2012; cited from earlier work
[3] = system: Methicillin resistant Staphylococcus aureus (ATCC 33591); assay: MIC by microbroth dilution, MRSA ATCC 33591; type: cell-based
In short: (§1)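 NCCLS (M07-08) microbroth dilution method used; values are MICs.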

MRSA E9749 = assay: MIC against FQ resistant clinical strain MRSA E9749; type: cell-based; details: Staphylococcus aureus, fluoroquinolone resistant clinical strain, read-out: MIC against FQ resistant strains, MRSA E9749
Method: (§2) Shown below are the microbiological activities of representative compounds of Formula I of the invention. The compounds were tested by the microbroth dilution method (National committee for Clinical Laboratory Standards, 2011, M07-08) and the Minimum Inhibitory Concentration (MIC) was determined.
(§3) To test if compounds are able to overcome fluoroquinolone resistance, we have determined the MICS against Fluoroquinolone (FQ) resistant clinical strains of MRSA and E. coli.

MRSA E9823 = assay: MIC against FQ resistant clinical strain MRSA E9823; type: cell-based; details: Staphylococcus aureus, fluoroquinolone resistant clinical strain, read-out: MIC against FQ resistant strains, MRSA E9823
Method: as §2, §3

[4] = system: Streptococcus pneumoniae (ATCC 6301); assay: MIC by microbroth dilution, Streptococcus pneumoniae ATCC 6301; type: cell-based; details: ATCC6301
Method: (§4) Shown below are the microbiological activities of representative compounds of Formula I of the invention. The compounds were tested by the microbroth dilution method (National committee for Clinical Laboratory Standards, 2011, […]-08) and the Minimum Inhibitory Concentration (MIC) was determined.

E. coli (ATCC 25922) = assay: MIC by microbroth dilution, E. coli ATCC 25922; type: cell-based; details: Escherichia coli
In short: as §1

[5] = system: Enterococcus faecalis (ATCC 29212); assay: MIC by microbroth dilution, Enterococcus faecalis ATCC 29212; type: cell-based; details: ATCC29212
Method: as §4

[6] = system: Staphylococcus aureus (ATCC 29213); assay: MIC by microbroth dilution, Staphylococcus aureus ATCC 29213; type: cell-based; details: ATCC29213
Method: as §4

E. coli Gyrase = target: T2, E. coli Gyrase (Escherichia coli, UniProt P0AES4+P0AES6); assay: in vitro Gyrase supercoiling assay (Inspiralis kit); type: biochemical; details: 1 hour at 37° C., read-out: % inhibition of DNA supercoiling activity; for inhibition at 0.1 µM: 0.1 μM compound; for inhibition at 1 µM: 1 μM compound
T2 construct: purchased Inspiralis
Method: To test for target specificity, the activity of compounds was evaluated in an in vitro Gyrase assay using recombinant Gyrase protein as per the instructions of the assay kit (Inspiralis). The assay measures the ability of E. coli Gyrase to convert relaxed plasmid DNA into the supercoiled form. The enzyme is incubated with the substrate (relaxed DNA) in the presence and absence of compounds for 1 hour at 37° C. and the DNA is run on a gel at low voltage for several hours. The gel is then stained with Ethidium bromide and DNA in the different forms is quantified using DNA imaging and quantification software (Image Lab). The activity of the enzyme is proportional to the amount of supercoiled form detected.

E. coli E1851 = assay: MIC against FQ resistant clinical strain E. coli E1851; type: cell-based; details: Escherichia coli, fluoroquinolone resistant clinical strain, read-out: MIC against FQ resistant strains, E. coli E1851
Method: (§5) The compounds were tested by the microbroth dilution method (National committee for Clinical Laboratory Standards, 2011, M07-08) and the Minimum Inhibitory Concentration (MIC) was determined.

[7] = system: Moraxella catarrhalis (ATCC 8176); assay: MIC by microbroth dilution, Moraxella catarrhalis ATCC 8176; type: cell-based; details: ATCC8176
Method: as §4

E. coli 86 = assay: MIC against FQ resistant clinical strain E. coli 86; type: cell-based; details: Escherichia coli, fluoroquinolone resistant clinical strain, read-out: MIC against FQ resistant strains, E. coli 86
Method: as §5

[8] = system: K. pneumoniae (ATCC 700603); assay: MIC by microbroth dilution, K. pneumoniae ATCC 700603; type: cell-based; details: Klebsiella pneumoniae, ATCC700603, Formula I compounds
In short: as §1

E. coli U1306 = assay: MIC against FQ resistant clinical strain E. coli U1306; type: cell-based; details: Escherichia coli, fluoroquinolone resistant clinical strain, read-out: MIC against FQ resistant strains, E. coli U1306
Method: as §5

E. coli U5690 = assay: MIC against FQ resistant clinical strain E. coli U5690; type: cell-based; details: Escherichia coli, fluoroquinolone resistant clinical strain, read-out: MIC against FQ resistant strains, E. coli U5690
Method: as §5

hERG [9] = target: T1, hERG; assay: biochemical
Method: To test the ability of the VT-03 compounds to bind the hERG channel, membranes expressing the hERG channel were incubated with radiolabeled Astemizole and displacement of the labeled ligand in the presence of compounds was measured.
To test the ability of the VT-03 compounds (of Formula II) to bind the hERG channel, membranes expressing the hERG channel were incubated with radiolabeled Astemizole and displacement of the labeled ligand in the presence of compounds was measured.

Acinetobacter BAA747 = assay: MIC by microbroth dilution, Acinetobacter BAA747; type: cell-based; details: Formula II compounds, read-out: Minimum Inhibitory Concentration (MIC) Acinetobacter BAA747
Method: as §2
(§6) Analysis of microbiological activity of compounds shown below are the microbiological activities of representative compounds of Formula II of the invention. The compounds were tested by the microbroth dilution method as per the reference in Example 1.

Pseudomonas ATCC 27853 = assay: MIC by microbroth dilution, Pseudomonas ATCC 27853; type: cell-based; details: ATCC27853, Formula II compounds, read-out: Minimum Inhibitory Concentration (MIC) Pseudomonas ATCC 27853
Method: as §2, §6

[10] = Single dose pharmacokinetics in male Swiss albino mice; type: in vivo; details: mouse, in vivo; for bioavailability: oral 10 mg/kg vs i.v. 5 mg/kg
Method: (§7) Compounds were dosed to male Swiss albino mice to determine the pharmacokinetic profiles.
as §7

E. faecalis ATCC 51299 = assay: MIC by microbroth dilution, E. faecalis ATCC 51299; type: cell-based; details: Enterococcus faecalis, ATCC51299, Formula II compounds, read-out: Minimum Inhibitory Concentration (MIC) E. faecalis ATCC 51299
Method: as §2, §6

[11] = target: T3, ciprofloxacin resistant recombinant Gyrase protein (with mutation S83L) (Escherichia coli, UniProt P0AES4+P0AES6, S83L); assay: Gyrase supercoiling assay with ciprofloxacin resistant Gyrase (S83L); type: biochemical; details: read-out: Target specificity: % inhibition of supercoiling activity
T3 construct: purchased Inspiralis
Method: The enzyme is incubated with the substrate (relaxed DNA) in the presence and absence of compounds for 1 hour at 37° C. and the DNA is run on a gel at low voltage for several hours. The amount of supercoiled DNA is quantified using DNA imaging and quantification software (Image Lab). The activity of the enzyme is proportional to the amount of supercoiled form detected.

A. baumannii = assay: Mutation prevention concentration and mutation frequency against A. baumannii; type: cell-based
Method: The mutation prevention concentration or the concentration above which mutants are unlikely to be selected, was determined based on published protocols (Antimicrobial Agents and Chemotherapy, 45, 433-438, 2001).
The mutation prevention concentration and mutation frequencies were determined based on published protocols, the reference of which is provided in Example 4.

[12] = ATCC33591, Formula I compounds, read-out: MIC Methicillin resistant Staphylococcus aureus (ATCC 33591)
[13] = ATCC25922, Formula I compounds, read-out: MIC E. coli (ATCC 25922)
[14] = Formula II compounds, read-out: Minimum Inhibitory Concentration (MIC) MRSA ATCC 33591
[15] = ATCC25922, Formula II compounds, read-out: Minimum Inhibitory Concentration (MIC) E. coli ATCC 25922

| Compound | MIC [3, 12] | MIC (MRSA E9749) | MIC (MRSA E9823) | MIC [4] | MIC (E. coli (ATCC 25922); [13]) | MIC [5] | MIC [6] | MIC [7] | MIC [8] | IC50 (hERG [9]) | also measured |
| --- | --- | --- | --- | --- | --- | --- | --- | --- | --- | --- | --- |
| COc1ccc2ncc(C#N)c(CCN3CCC(NCc4cc5c(cn4)OCS5)CC3)c2c1 [GSK299423] |  |  |  |  |  |  |  |  |  |  | hERG binding liability (in words) (hERG [1]): serious hERG binding liability |
| COc1ccc2ncc(F)c([C@@H](O)CC[C@@H]3CCN(CCSc4cccs4)C[C@@H]3C(=O)O)c2c1 [NXL-101] |  |  |  |  |  |  |  |  |  |  | QT prolongation (in words) [2]: causes QT prolongation |
| COc1ccc2ncc(C#N)c(CCN3CCC(NCc4ccc([N+](=O)[O-])s4)CC3)c2c1 [VT-03-00052] | 0.25 µg/mL (≈ 0.554 µM) | 0.25 µg/mL (≈ 0.554 µM) | 0.25 µg/mL (≈ 0.554 µM) | 1 µg/mL (≈ 2.21 µM) | 16 µg/mL (≈ 35.4 µM) | 4 µg/mL (≈ 8.86 µM) | 0.125 µg/mL (≈ 0.277 µM) |  |  |  |  |
| COc1ccc2ncc(=O)n(CCN3CCC(NCc4csc([N+](=O)[O-])c4)CC3)c2c1 [VT-03-00057] | 0.25 µg/mL (≈ 0.564 µM) | 0.25 µg/mL (≈ 0.564 µM) | 0.25 µg/mL (≈ 0.564 µM) | 0.5 µg/mL (≈ 1.13 µM) | 2 µg/mL (≈ 4.51 µM) | 2 µg/mL (≈ 4.51 µM) | 0.12 µg/mL (≈ 0.271 µM) | 0.5 µg/mL (≈ 1.13 µM) | > 32 µg/mL |  | inhibition at 0.1 µM (E. coli Gyrase): 61.4%; inhibition at 1 µM (E. coli Gyrase): 90.6%; MIC (E. coli E1851): 2 µg/mL (≈ 4.51 µM); MIC (E. coli 86): 16 µg/mL (≈ 36.1 µM); MIC (E. coli U1306): 16 µg/mL (≈ 36.1 µM); MIC (E. coli U5690): 8 µg/mL (≈ 18 µM) |
| COc1ccc2ncc(C#N)c(CCN3CCC(NC(=O)c4ccc(Cl)c([N+](=O)[O-])c4)CC3)c2c1 [VT-03-00058] | 0.06 µg/mL (≈ 0.121 µM) |  |  | 0.03 µg/mL (≈ 0.0607 µM) | 1 µg/mL (≈ 2.02 µM) | 0.25 µg/mL (≈ 0.506 µM) | 0.015 µg/mL (≈ 0.0304 µM) | 0.5 µg/mL (≈ 1.01 µM) | 16 µg/mL (≈ 32.4 µM) | > 30 µM |  |
| COc1ccc2ncc(=O)n(CCN3CCC(NCc4ccc(C)c([N+](=O)[O-])c4)CC3)c2c1 [VT-03-00062] | 0.015 µg/mL (≈ 0.0332 µM) | 0.015 µg/mL (≈ 0.0332 µM) | ≤ 0.0075 µg/mL | 0.015 µg/mL (≈ 0.0332 µM) | 0.5 µg/mL (≈ 1.11 µM) | 0.12 µg/mL (≈ 0.266 µM) | ≤ 0.0075 µg/mL | ≤ 0.06 µg/mL | 8 µg/mL (≈ 17.7 µM) |  | inhibition at 0.1 µM (E. coli Gyrase): 91.5%; inhibition at 1 µM (E. coli Gyrase): 98.7% |
| COc1ccc2ncc(C#N)c(CCN3CCC(NCc4ccc(OC)c([N+](=O)[O-])c4)CC3)c2c1 [VT-03-00063] | 0.5 µg/mL (≈ 1.05 µM) |  |  | 0.25 µg/mL (≈ 0.526 µM) | 4 µg/mL (≈ 8.41 µM) | 2 µg/mL (≈ 4.21 µM) | 0.25 µg/mL (≈ 0.526 µM) | 0.25 µg/mL (≈ 0.526 µM) | > 32 µg/mL | > 30 µM |  |
| Cc1ccc(CNC2CCN(CCn3c(=O)cnc4ccc(Cl)nc43)CC2)cc1[N+](=O)[O-] [VT-03-00118] |  |  |  |  |  |  |  |  |  | > 30 µM | MIC [3, 14]: 0.015 µg/mL (≈ 0.0328 µM); MIC (Acinetobacter BAA747): 0.25 µg/mL (≈ 0.547 µM); MIC (Pseudomonas ATCC 27853): 8 µg/mL (≈ 17.5 µM); MIC (E. coli (ATCC 25922); [15]): 0.25 µg/mL (≈ 0.547 µM); AUC(0-t) ([10]; iv, 5 mg/kg): 497 ng·h/mL; Cmax ([10]; iv, 5 mg/kg): 913 ng/mL; Tmax ([10]; iv, 5 mg/kg): 9.6 min; half-life ([10]; iv, 5 mg/kg): 22.2 min; bioavailability [10]: 1.12%; AUC(0-t) ([10]; oral, 10 mg/kg): 9.3 ng·h/mL; Cmax ([10]; oral, 10 mg/kg): 18.6 ng/mL; Tmax ([10]; oral, 10 mg/kg): 60 min; half-life ([10]; oral, 10 mg/kg): 666 min; MIC (E. faecalis ATCC 51299): 0.125 µg/mL (≈ 0.274 µM); inhibition at 0.1 µM [11]: 91.5%; inhibition at 1 µM [11]: 89% |
| Cc1ccc(CNC2CCN(CCn3c(=O)cnc4ccc(F)cc43)CC2)cc1F [VT-03-00122] |  |  |  |  |  |  |  |  |  | > 30 µM | MIC [3, 14]: 0.06 µg/mL (≈ 0.145 µM); MIC (Acinetobacter BAA747): 0.25 µg/mL (≈ 0.606 µM); Mutation prevention concentration against A. baumannii (A. baumannii): 16 µg/mL; Mutation frequency (A. baumannii; A. baumannii, at 8 μg/ml): 1.10 * 10^−8 at 8 μg/ml; MIC (Pseudomonas ATCC 27853): 16 µg/mL (≈ 38.8 µM); MIC (E. coli (ATCC 25922); [15]): 0.25 µg/mL (≈ 0.606 µM); AUC(0-t) ([10]; iv, 5 mg/kg): 242 ng·h/mL; Cmax ([10]; iv, 5 mg/kg): 381 ng/mL; Tmax ([10]; iv, 5 mg/kg): 9.6 min; half-life ([10]; iv, 5 mg/kg): 29.4 min; bioavailability [10]: 7.69%; AUC(0-t) ([10]; oral, 10 mg/kg): 37.3 ng·h/mL; Cmax ([10]; oral, 10 mg/kg): 28.1 ng/mL; Tmax ([10]; oral, 10 mg/kg): 60 min; MIC (E. faecalis ATCC 51299): 0.5 µg/mL (≈ 1.21 µM); inhibition at 0.1 µM [11]: 95.5%; inhibition at 1 µM [11]: 97.1% |

Source: patent US20170197935A1, “INHIBITORS OF DNA GYRASE FOR THE TREATMENT OF BACTERIAL INFECTIONS” (Vitas Pharma Research Private Limited, priority 2012, published 2017)
